Earlier results as cited in patent US20230191113A1, “METHOD AND APPARATUS FOR CANCER TREATMENT” (Minnesota Medical Physics LLC, priority 2020, published 2023).

Key:
[1] = tested on: cancer tumors; conditions: cited from earlier work
[2] = molecular target: T1, A3 receptors (Homo sapiens, UniProt P0DMS8); conditions: allosteric enhancer added to A3AR agonist; cited from earlier work
T1 sequence (P0DMS8 1-318): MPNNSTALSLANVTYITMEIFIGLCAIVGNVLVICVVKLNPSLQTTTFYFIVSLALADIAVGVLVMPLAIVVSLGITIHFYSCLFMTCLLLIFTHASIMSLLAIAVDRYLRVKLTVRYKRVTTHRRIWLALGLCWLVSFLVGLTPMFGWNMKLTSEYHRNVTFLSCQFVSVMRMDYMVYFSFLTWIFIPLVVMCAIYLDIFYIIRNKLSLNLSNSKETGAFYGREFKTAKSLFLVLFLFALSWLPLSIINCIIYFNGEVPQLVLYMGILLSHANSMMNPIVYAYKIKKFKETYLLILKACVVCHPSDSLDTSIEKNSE

SMILES	increase of the apoptotic rate by one-dimensional EFS ([1]; CL-IB-MECA plus one-dimensional EFS) [factor]	effect on growth of cancer tumors ([1]; multiple studies, significant dose of A3AR agonist alone)	increase of the maximum efficacy of A3 receptors agonists [2] [%]
CNC(=O)[C@H]1O[C@@H](n2cnc3c(NCc4cccc(I)c4)nc(Cl)nc32)[C@H](O)[C@@H]1O [CL-IB-MECA]	0.4	slowed down the growth of cancer tumors	
Clc1ccc(Nc2nc3ccccc3c3nc(C4CCCCC4)[nH]c23)cc1Cl [LUF6000]			45
